Results published in US20220087969A1, “METHOD FOR TREATING ASTHMA” (Olatec Therapeutics LLC, priority 2019, published 2022).
Like-named read-outs stand apart in the source and are kept apart here.

Assays:
[1] = tested on: OVA-induced allergic airway inflammation; test: Goblet cells covering airway mucosa, OVA model, oral dapansutrile in food; assay type: in vivo, mice
Experimental: The experimental protocols of the mouse model were the same as those described in Example 1, except dapansutrile was administered orally by food. The already-sensitized mice were fed ad libidum with food pellets containing 7.5 g/kg dapansutrile starting on day 22 for one week; the first aerosol challenge was on day 26. Mice typically consume about 4 g of food per day, resulting in an approximate daily dose of 0 mg/kg/day for control groups and 1,000 mg/kg/day for the treatment groups. […] OVA-sensitized, OVA-challenged asthmatic controls (asthmatic) were fed with control food pellets without dapansutrile. […] (data not shown).

[2] = Blood level in mice fed dapansutrile food pellets; assay type: in vivo, mouse; settings: 7.5 g/kg dapansutrile in food, nearly the same as the human level
Experimental: The already-sensitized mice were fed ad libidum with food pellets containing 7.5 g/kg dapansutrile starting on day 22 for one week; the first aerosol challenge was on day 26. Mice typically consume about 4 g of food per day, resulting in an approximate daily dose of 0 mg/kg/day for control groups and 1,000 mg/kg/day for the treatment groups.

[3] = tested on: OVA-induced allergic airway inflammation; test: Inflammatory cell infiltrate in lung tissue (HE sections, CAST), OVA model, i.p. dapansutrile; assay type: in vivo, C57BL/6j mice; settings: 60 mg/kg i.p.; treated vs asthmatic mice; p<0.01
Experimental: (§1) C57BL/6j mice were sensitized to OVA (ovalbumin) by three intraperitoneal (i.p.) injections of 10 μg OVA adsorbed to 150 mg aluminum hydroxide on days 1, 14, and 21. This sensitization results in an adoptive immune response against OVA with OVA-specific TH2 cells and the production of OVA-specific antibodies of the subclasses IgE and […]. To induce acute allergic airway inflammation, mice were exposed three times to an OVA aerosol (1% w/v in PBS) on days 26, 27, and 28. Healthy control animals (healthy group) were sham sensitized to PBS and subsequently challenged with PBS aerosol. […] The following readouts were measured according to Lunding, 2015b. • General infiltration of inflammatory cells into the broncheoalveolar lumen • Determination of the specific infiltration of eosinophils, neutrophils and lymphocytes by histologic differentiation of the bronchoalveolar lavage (BAL) cells. • Goblet cell hyperplasia by CAST system (Computer Assisted Stereological Toolbox), including making microscopic pictures of the airways. • Airway resistance in response to methacholine to determine the airway hyperresponsiveness. Specifically, inflammatory cell subpopulations (eosinophils, macrophages, neutrophils, lymphocytes) infiltrating the bronchoalveolar lumen were quantified using cyto-spinned and quick-diff-stained cells from bronchoalveolar lavage fluids (BALF). […]

[4] = tested on: OVA-induced allergic airway inflammation; test: Airway resistance in methacholine provocation test, OVA model, i.p. dapansutrile; assay type: in vivo, C57BL/6j mice; settings: 60 mg/kg i.p., Day 29, 100 mg/mL methacholine
Experimental: as §1

[5] = humans, oral 1000 mg/day; Marchetti 2018b; cited from earlier work

CS(=O)(=O)CCC#N [dapansutrile, 3-methanesulfonylpropionitrile]
change of goblet cells covering the airway mucosa ([1]; oral, 7.5 g/kg in food, vs asthmatic mice): −29% | goblet cells covering the airway mucosa ([1]; treated mice, oral 7.5 g/kg in food, asthmatic 15.75%): 11.16% | blood level [2]: ~40000 ng/mL | number of inflammatory cells in lung tissue (volume of inflammatory cell infiltrate per basal membrane area) [3]: significantly lower | reduction of airway resistance ([4]; vs asthmatic mice, p<0.0001): about 60% | airway resistance in response to methacholine ([4]; treated mice, asthmatic 5.61, healthy 2.83): 3.93 cm H2O·sec·ml^−1 | blood level [5]: 40000 ng/mL
